Results: patent US6020345A, “Pyridin-2-yl-methylamine derivatives, method of preparing and application as medicine” (Pierre Fabre Medicament, priority 1996, dated 2000)
Read-outs that look alike come from different tables or passages of the source.

What was measured:
[1] = target: T1, 5-HT1A receptors (Rattus norvegicus, UniProt P19327); experiment: In vitro affinity for the 5-HT1A receptors by displacement of (^3 H)8-OH-DPAT; format: binding; design: rat cerebral cortices are used; from tissue; host or cells: rat cerebral cortex; conditions: for affinity for the 5-HT1A receptors (in words): in vitro; for pKi 5-HT1A: mean of at least 3 experiments, rat cerebral cortex, (^3 H)8-OH-DPAT; for 5-HT1A /D2 Selectivity: ratio of affinity constants (Ki) D2 /(Ki) 5-HT1A
T1 sequence (P19327 1-422): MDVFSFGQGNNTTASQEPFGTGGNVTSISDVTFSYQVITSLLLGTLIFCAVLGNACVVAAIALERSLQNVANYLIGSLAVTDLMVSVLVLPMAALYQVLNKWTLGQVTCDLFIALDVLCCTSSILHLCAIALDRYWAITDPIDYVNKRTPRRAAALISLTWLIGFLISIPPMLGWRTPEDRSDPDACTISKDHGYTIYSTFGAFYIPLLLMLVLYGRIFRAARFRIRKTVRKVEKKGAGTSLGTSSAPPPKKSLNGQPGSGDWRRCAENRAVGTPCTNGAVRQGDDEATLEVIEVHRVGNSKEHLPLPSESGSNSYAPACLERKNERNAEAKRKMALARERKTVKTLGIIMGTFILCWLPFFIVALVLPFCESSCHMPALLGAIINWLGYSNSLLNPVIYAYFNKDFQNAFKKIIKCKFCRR
Procedure: 1-Measurement of the affinity of the compounds of the invention for the 5-HT1A receptors
The study of binding to the 5-HT1A receptor was carried out as described by Sleight and Peroutka (Naunyn-Schmiedeberg's Arch. Pharmaco. 1991, 343, 106-16). For these experiments, rat cerebral cortices are used. After thawing the brain in 50 mmol Tris-HCl buffer, pH=7.40 at 25° C., the cerebral cortex is removed and homogenized in 20 volumes of buffer maintained at 4° C. The homogenate is centrifuged at 39,000 g for 10 minutes, the centrifugation pellet is suspended in the same volume of buffer and again centrifuged. After suspending again under the same conditions, the homogenate is incubated for 10 minutes at 37° C. and then centrifuged again. The final pellet is suspended in cold 50 mmol Tris-HCl reaction buffer, pH=7.40 at 25° C. containing 10 mmol of pargyline, 4 mmol of CaCl2 and 0.10% of ascorbic acid. The final concentration of tissue in the incubation medium is 10 mg/tube.
Nonspecific binding is defined using 10 mmol of 5-HT. The reaction tubes are incubated at 23° C. for 30 minutes and then their content is rapidly filtered under vacuum on Whatman GF/B filters, the tubes are rinsed twice with 5 ml of 50 mmol Tris-HCl buffer, pH=7.4 at 25° C. The radioactivity collected on the filter is analyzed by liquid scintillation by adding 4 ml of scintillation fluid (Emulsifier Safe, Packard). All the experiments are carried out in triplicate.
(§1) The inhibition constants (Ki) of the products of the invention are estimated from displacement experiments using the nonlinear regression program RADLIG version 4 from EBDA (Equilibrium Binding Data Analysis) (Biosoft, Cambridge, UK, McPherson, 1985). […] The pKi (-logKi) values are given in the form of the mean ±SEM of at least 3 experiments.

[2] = target: T2, D2 dopaminergic receptors (Rattus norvegicus, UniProt P61169); experiment: In vitro affinity for the D2 dopaminergic receptors by displacement of (^3 H) YM-09151-2; format: binding
T2 construct: rat striatum is used; from tissue; host or cells: rat striatum
T2 sequence (P61169 whole entry): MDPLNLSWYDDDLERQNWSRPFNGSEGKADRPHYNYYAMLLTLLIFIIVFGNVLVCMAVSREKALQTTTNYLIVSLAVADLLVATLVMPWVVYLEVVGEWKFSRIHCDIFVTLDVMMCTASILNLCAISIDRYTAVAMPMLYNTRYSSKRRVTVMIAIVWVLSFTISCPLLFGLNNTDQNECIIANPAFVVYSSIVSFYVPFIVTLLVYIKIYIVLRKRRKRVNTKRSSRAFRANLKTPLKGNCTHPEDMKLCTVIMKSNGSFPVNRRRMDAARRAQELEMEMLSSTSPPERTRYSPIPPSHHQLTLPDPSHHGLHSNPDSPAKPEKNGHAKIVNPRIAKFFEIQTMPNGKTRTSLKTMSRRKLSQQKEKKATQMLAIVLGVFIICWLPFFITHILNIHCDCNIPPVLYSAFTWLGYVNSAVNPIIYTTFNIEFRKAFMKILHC
Procedure: 2-Measurement of the affinity of the compounds of the invention for the D2 receptors
The in vitro affinity of the compounds of the invention for the D2 dopaminergic receptors was determined by measuring the displacement of (^3 H) YM-09151-2 (NET-1004 70-87 Ci/mmol). The study of binding to the D2 receptor is carried out as described by Niznik (Naunyn-Schmiedeberg's Arch. Pharmacol. Methods, 1985, 329, 333-38). For these experiments, rat striatum is used. After thawing the brain in 50 mmol Tris-HCl buffer, pH=7.40 at 25° C., the striatum is collected and homogenized in 40 volumes of buffer maintained at 4° C. The homogenate is centrifuged at 20,000 g for 10 minutes, the centrifugation pellet is suspended in the same volume of buffer and again centrifuged. The final pellet is suspended in cold 50 mmol Tris-HCl reaction buffer, pH=7.40 at 25° C. containing 120 mmol of NaCl and 5 mmol of KCl. The final concentration of tissue in the incubation medium is 2 mg/tube. The reaction tubes contain 0.20 ml of [^3 H]YM-09151-2 (0.05 mmol final), 0.20 ml of product to be tested 6-7 concentrations and 1.60 ml of tissue. Nonspecific binding is defined using 1 mmol of (+)-Butaclamol. The reaction tubes are incubated at 23° C. for 60 minutes and then their content is rapidly filtered under vacuum on Whatman GF/B filters, the tubes are rinsed twice with 5 ml of 50 mmol Tris-HCl buffer, pH=7.40 at 25° C. The radioactivity collected on the filter is analyzed by liquid scintillation by adding 4 ml of scintillation fluid (Emulsifier Safe, Packard). All the experiments are carried out in triplicate.
as §1

[3] = target: T1, 5-HT1A receptors; experiment: In vivo 5-HT1A agonist activity: lower lip retraction (LLR) in rats after oral administration; design: Sprague Dawley male rats; from tissue; host or cells: whole animal, Sprague Dawley male rats (central nervous system); species or system rat (Sprague Dawley male); conditions: 1 h
Text: 3-Evaluation of the agonist activity of the 5-HT1A receptors of the compounds of the invention in vivo
Sprague Dawley male rats (ICO: OFAD [IOPS], Iffa Credo, France) weighing 160-180 g on their arrival and 180-200 g at the beginning of the tests are used. The animals are quarantined for 4 to 8 days with free access to standard laboratory food before their use in the experiments. Animals are housed individually in plastic cages on a support, (28 cm×21 cm×18 cm) with a floor having a wire mesh covering (RC Iffa Credo), 24 hours before the tests. Water filtered on 0.22 μm is available ad libitum by means of an automatic dispenser. The quarantine area and the experimentation laboratory are air-conditioned (temperature: 22±1° C.; relative humidity: 55±5%) and illuminated from 07:00 to 19:00. All the rats are treated in accordance with laboratory animal ethics (Guide for the Care and Use of Laboratory Animals, U.S. Department of Agriculture. Public Health Service. National Institutes of Health publication No. 85-23, Revised 1985), and the protocol (No. 15) is carried out in accordance with the recommendations of the local ethics committee on animal research.
The methods used are essentially identical to those described previously (Drug. Dev. Res. 1992, 26, 21-48; Eur. J. Pharmacol. 1995, 281, 219-28).
The behavior of the animal is observed for a period of 10 minutes each, centred on t60 minutes, after administration by the oral route. Four animals are observed individually during the 10 minute period (from t55 to t65); the 4 rats are observed in turn, every 15 seconds, duration of observation 10 seconds per animal. During each of these observation periods, the presence (1) or absence (0) of lower lip retraction (LLR) in the animal is noted. […] This cycle is repeated 10 times over a period of 10 minutes; thus, the frequency of a behavior may vary from 0 to 10 for each observation period. Each day, two animals from each group receive the same dose of the same product.
The products are dissolved in distilled water or suspended in an aqueous solution of Tween 80 (2 drops/10 ml of distilled water). The products are administered in a volume of 10 ml/kg and the doses are expressed in basal weight. The order of administration of the products and of the doses is randomized.

[4] = mean of at least 3 experiments, rat striatum, (^3 H)YM-09151-2
[5] = po, read-out: LLR p.o (60 minutes) ED50
[6] = read-out: LLR p.o (60 minutes) ED50, oral, observed t55 to t65 minutes
[7] = mean of at least 3 experiments, rat striatum, (^3 H)YM-09151-2, read-out: pKi D2 (converted)

CCCN(CCC)C1CCc2cccc(O)c2C1 (stereo not shown) [8-OH-DPAT, 7-dipropylamino-5,6,7,8-tetrahydronaphthalen-1-ol, reference compound]
affinity for the 5-HT1A receptors (in words) [1]: high affinity for the 5-HT1A receptors
pKi D2 [2, 4]: 6.26
ED50 [3, 5]: 5 mg/kg

O=C1CC2(CCCC2)CC(=O)N1CCCCN1CCN(c2ncccn2)CC1 [Buspirone, reference compound]
affinity for the 5-HT1A receptors (in words) [1]: high affinity for the 5-HT1A receptors
ED50 [3, 6]: 20 mg/kg

CNc1cccc(CNCC2(F)CCN(C(=O)c3ccc(Cl)c(Cl)c3)CC2)n1 [I-11]
pKi 5-HT1A [1]: 9.67
5-HT1A /D2 Selectivity [1]: 1862
pKi D2 [2, 4]: 6.40
ED50 [3, 6]: 0.31 mg/kg

CN(C)c1cccc(CNCC2(F)CCN(C(=O)c3ccc(F)c(Cl)c3)CC2)n1 [I-13, (3-chloro-4-fluoro-phenyl)-(4-fluoro-4-{[(6-dimethylaminopyridin-2-yl-methyl)amino]methyl}-piperidin-1-yl)methanone]
pKi 5-HT1A [1]: 9.92
5-HT1A /D2 Selectivity [1]: 2291
pKi D2 [2, 4]: 6.56
ED50 [3, 6]: 0.31 mg/kg

CN(C)c1cccc(CNCC2(F)CCN(C(=O)c3ccc(Cl)c(Cl)c3)CC2)n1 [I-14, (3,4-dichlorophenyl)-(4-fluoro-4-{[(6-dimethylaminopyridin-2-yl-methyl)amino]methyl}piperidin-1-yl)-methanone]
pKi 5-HT1A [1]: 9.61
5-HT1A /D2 Selectivity [1]: 1349
pKi D2 [2, 4]: 6.48
ED50 [3, 6]: 0.31 mg/kg

O=C(c1ccc(F)c(Cl)c1)N1CCC(F)(CNCc2cccc(-c3ccco3)n2)CC1 [I-32, (3-chloro-4-fluorophenyl)-(4-fluoro-4-{[(6-furan-2-yl-pyridin-2-yl-methyl)amino]methyl}-piperidin-1-yl)methanone]
pKi 5-HT1A [1]: 9.55
5-HT1A /D2 Selectivity [1]: 7942
pKi D2 [2, 4]: 5.65
ED50 [3, 6]: 0.31 mg/kg

CNc1nc(CNCC2(F)CCN(C(=O)c3ccc(F)c(Cl)c3)CC2)ccc1C [I-55, (3-chloro-4-fluoro-phenyl)-(4-fluoro-4-{[(5-methyl-6-methylaminopyridin-2-ylmethyl)amino]-methyl}piperidin-1-yl)methanone]
pKi 5-HT1A [1]: 10.12
5-HT1A /D2 Selectivity [1]: 16982
Ki [2]: 1290 nM
ED50 [3, 5]: 0.08 mg/kg

O=C(c1ccc(F)c(Cl)c1)N1CCC(F)(CNCc2cccc(N3CCC3)n2)CC1 [I-56]
5-HT1A /D2 Selectivity [1]: 7414
Ki ([1]; read-out: pKi 5-HT1A (converted)): 0.138 nM
Ki [2, 7]: 1020 nM
ED50 [3, 6]: 0.08 mg/kg

CCNc1cccc(CNCC2(F)CCN(C(=O)c3ccc(F)c(Cl)c3)CC2)n1 [I-58]
pKi 5-HT1A [1]: 9.73
5-HT1A /D2 Selectivity [1]: 1259
Ki [2, 7]: 234 nM
ED50 [3, 6]: 0.31 mg/kg

CNc1cccc(CNCC2(F)CCN(C(=O)c3ccc(F)c(Cl)c3)CC2)n1 [I-59]
pKi 5-HT1A [1]: 9.69
5-HT1A /D2 Selectivity [1]: 5011
Ki [2, 7]: 1020 nM
ED50 [3, 6]: 0.31 mg/kg

Cc1ccc(CNCC2(F)CCN(C(=O)c3ccc(F)c(Cl)c3)CC2)nc1N(C)C [I-61, (3-chloro-4-fluoro-phenyl)-(4-fluoro-4-{[(5-methyl-6-dimethylaminopyridin-2-yl-methyl)amino]-methyl}piperidin-1-yl)methanone]
pKi 5-HT1A [1]: 9.50
5-HT1A /D2 Selectivity [1]: 1906
Ki [2, 7]: 603 nM
ED50 [3, 6]: 0.08 mg/kg

O=C(c1ccc(F)c(Cl)c1)N1CCC(F)(CNCc2cccc(-c3cc[nH]n3)n2)CC1 [I-62]
pKi 5-HT1A [1]: 9.34
5-HT1A /D2 Selectivity [1]: 16594
Ki [2, 7]: 7590 nM
ED50 [3, 6]: 0.31 mg/kg

Cc1ccc(CNCC2(F)CCN(C(=O)c3ccc(Cl)c(Cl)c3)CC2)nc1 [I-65]
pKi 5-HT1A [1]: 9.24
5-HT1A /D2 Selectivity [1]: > 10000
Ki [2, 7]: > 10000 nM
ED50 [3, 6]: 0.31 mg/kg
